The record followed here is a melting point compilation (Tetko et al.; mined from patent text by program, amines drawn as free bases though some values may be those of a salt).

SMILES strings stand for the structures.

As usually defined, the melting point is the temperature, or range, at which the solid turns liquid. As to `CN(C=O)CC1(N2CCCCC2)CCCCC1`, the melting point came out at 94 °C.

Compound `O=C(O)C=Cc1cccc(CCc2nc(-c3ccccc3)c(-c3ccccc3)o2)c1` showed a melting point of 114 to 115 °C.

For the compound `O=C1CNc2ccc(F)cc2O1`, the melting point was 199 °C.

Consider `CN(C=O)C1CCC(O)(c2ccc(Cl)c(Cl)c2)c2ccccc21` (configuration not stated), for which the melting point was 123 to 125 °C.

The compound `O=C1c2ccccc2C(=O)N1CC(=O)N1c2ccccc2N(c2ccccc2)C(=O)C2CCCC21` (configuration not stated) registered a melting point of 272 to 273 °C.

The compound `CS(=O)(=O)N1CC2(COc3cc4c(cc32)OCO4)c2ccccc21` (configuration not stated) displayed a melting point of 215 to 217 °C.

As for `CNC(=O)c1ccc(-c2cccc(C3=NC(C)(C)Cc4cc(OC)c5c(c43)CC(C)(C)O5)c2)cc1`, the melting point lay in the range of 242 to 244 °C.

Compound `Cc1ncccc1Oc1ccc(NC(=O)N2CCc3c(n(C)c4ccccc34)CC2)cn1` came in with a melting point of 159 to 160 °C.

As to `Cc1cc(C(=O)N(C(C)C)C(C)C)ccc1[N+](=O)[O-]`, the melting point fell in the range of 108 to 110 °C.

With `Cc1ccc(C(N)=O)c(C)c1`, the melting point was in the range of 184 to 186 °C.

`COC(=O)c1c2snnc2nn1C` came in with a melting point of 115 to 121 °C.

Regarding `O=Cc1cc2c3ccccc3ccc2c2ccccc12`, the melting point is 167 to 169 °C.

The compound `CC(=O)C(C)Oc1cc(N)c(Cl)cc1C(=O)NCCN(C)C` (configuration not stated) came in with a melting point of 124 to 125 °C.

`COc1c(C)c2c(c(OS(=O)(=O)c3ccc(C)cc3)c1CC1=C(C)C(=O)CC1)C(=O)OC2` returned a melting point of 65.4 to 66.8 °C.

Compound `Nc1ccc(C=C2c3ccccc3CCc3ccccc32)cc1` registered a melting point above 250 °C.

`CC(C)(C)OC(=O)NC1CNC(=O)C12CC2` (configuration not stated) yielded a melting point of 178 to 181 °C.

`COc1cc2c(cc1OC)CN(CCCc1ccc(NC(=O)c3cccc4c(=O)c5cccc(C)c5[nH]c34)cc1)CC2` yielded a melting point of 120 °C.

`O=CCCc1c[nH]c2ccc(F)cc12` yielded a melting point of 79 to 80 °C.

Compound `N#Cc1ncn2c1[C@@H]1CCCN1C(=O)c1c(Br)cccc1-2` displayed a melting point of 253 to 254 °C.

Consider `N#Cc1[nH]n(C2CCCC2)c2nc(-c3ccncc3)nc(=O)c1-2`, for which the melting point was above 300 °C.

With `O=C(O)c1cc(-n2c3c(c(-c4ccccc4)c2-c2ccccc2)CCCC3)ccc1O`, the melting point lay in the range of 246 to 247 °C.

With `O=C(Nc1ccccc1)N1CCc2ccccc2C1`, the melting point lay within 145 to 146 °C.

`CCc1ccc(NC(=N)c2ccc(SC)cc2)cc1`: the melting point lay within 156 to 158 °C.

For the compound `CCC=C1SC(=O)N(CCCCOc2cccn3ccnc23)C1=O`, the melting point lay within 70 to 71 °C.

The compound `CC(=O)NC[C@H]1CN(c2ccc(C3=CCOCC3)cc2)C(=O)O1` came in with a melting point of 182 to 184 °C.

For the compound `NC1=NN(c2cccc(F)c2)C(c2ccccc2)C1` (configuration not stated), the melting point was 165 to 166 °C.

In turn, `O=C1CCCc2[nH]c3ccc(OCc4ccccc4)cc3c21` gave a melting point of 235 to 237 °C.

`NC(=O)CC12CC3CC(CC(C3)C1)C2` displayed a melting point of 174 °C.

In turn, `CN(C)C(=O)C1CCc2c([nH]c3ccc(Cl)cc23)C1` (configuration not stated) showed a melting point of 176 to 177 °C.

As for `CC(C)(C)OC(=O)CC[C@@H](NC(=O)OCc1ccccc1)c1nnn[nH]1`, the melting point is 99 to 101 °C.

The compound `COc1nc2ccccc2nc1NC(=S)N1CCN(c2cc(C)cc(C)c2)CC1` came in with a melting point of 193 to 195 °C.

Compound `CNC(=O)c1c(N)cccc1OC` yielded a melting point of 186 to 189 °C.

Compound `Cc1nn(-c2cc(O)c(Cl)cc2F)c(C)c1C` had a melting point of 158 to 160 °C.

As to `CCCCOc1ccc(S(=O)(=O)N2CCC(N(Cc3ccccc3)CC(O)COc3cccc4[nH]c5ccccc5c34)C2)cc1` (configuration not stated), the melting point lay within 73 to 76 °C.

In turn, `Cc1oc(-c2ccccc2)nc1COc1ccc(C(=O)c2ccccc2O)cc1` yielded a melting point of 121 to 122 °C.

The compound `CS(=O)(=O)Nc1ccc(C(=N)Nc2cc(Cl)cc(NC(=O)/C=C/c3ccccc3Cl)c2)cc1` displayed a melting point of 158 to 160 °C.

Compound `CCOc1ccc(/C=C/c2nc3c(c(=O)n(CC)c(=O)n3CC)n2C)cc1` showed a melting point of 185 to 186 °C.

Compound `CCOC(=O)CNC(=S)Cc1cnc(C)c2c1COC(C)(C)O2` returned a melting point of 156 to 158 °C.

On to `C=CC(=O)Nc1ccc2ccc(Cl)nc2n1`, for which the melting point came to 200 °C.

In the case of `CC(C)(C)OC(=O)C1=C(c2ccccc2)C(c2ccccc2)OC1=O` (configuration not stated), the melting point was in the range of 109 to 111 °C.

In turn, `CCOC(=O)C1=C(C)NC(c2cscn2)=NC1c1ccc(F)cc1` (configuration not stated) came in with a melting point of 118 to 120 °C.

On to `CC(C)(C(=O)OCC(=O)c1ccccc1)n1c(=O)[nH]c2cc(Cl)ccc2c1=O`, for which the melting point lay in the range of 203 to 204 °C.

Compound `Cc1nc2c3c(c(C(=O)N4CC(F)C4)cc2n1C)CCC1(Cc2ccccc2C1)N3` gave a melting point of 259 to 260 °C.

Take `COc1cccc(NC(=O)NC2N=C(c3ccccc3)c3ccccc3N(C)C2=O)c1` (configuration not stated): the melting point is 216 to 219 °C.

`Cc1ccc2c(c1)Sc1ccc(F)cc1C(N1CCN(CCN3CCOC3=O)CC1)C2` (configuration not stated) had a melting point of 147 to 149 °C.

Turning to `CC#CCOc1cc(OCC#CC)ncn1`, the melting point turned out to be 82.9 °C.

`CC(C)c1nc(-c2cccs2)cc(-c2ccc(F)cc2)c1C=O`: the melting point was in the range of 123 to 125 °C.

`O=C1NC(=O)[C@@]2(C[C@@H](C(=O)NCCN3CCN(C(c4ccccc4)c4ccccc4)CC3)Oc3ccc(F)cc32)N1` displayed a melting point of 200 to 205 °C.

Regarding `CCC1(Br)Cc2c(Cl)ccc(OCC(=O)O)c2C1=O` (configuration not stated), the melting point is 136 to 146 °C.

As to `Cn1c(=O)nc(NCCCN2CCN(C(c3ccccc3)c3ccccc3)CC2)c2ccccc21`, the melting point lay within 121 to 124 °C.

`O=C(Nc1ccc(-n2nc(C(F)(F)F)cc2OC(F)F)cc1)c1ccccc1F` had a melting point of 130 to 131 °C.

`N=C(Nc1ccc(F)c(NC(=O)/C=C/c2ccccc2Cl)c1)c1ccccc1` gave a melting point of 189 to 191 °C.

As to `NS(=O)(=O)c1cc2c(cc1Cl)C(=O)N(Cc1ccccn1)C2=O`, the melting point fell in the range of 240 to 242 °C.

`Cc1nc(C(=O)N(C)C)c2n1-c1ccc(Cl)cc1C(c1ccccc1)=NC2` returned a melting point of 173 to 175 °C.

Regarding `O=C(NC1CCN(CCCOc2ccccc2C(=O)O)CC1)c1ccccc1`, the melting point fell in the range of 207 to 208 °C.

With `COc1ccc(-c2ccccc2)cc1F`, the melting point was in the range of 84.5 to 86 °C.

Turning to `COC(=O)/C=C(\C)C(C)Sc1nc(N)cc(Cl)n1` (configuration not stated), the melting point lay within 124 to 126 °C.

`O=C1Cc2cc(F)ccc2C(c2ccc(Cl)cc2)N1` (configuration not stated) had a melting point of 160 to 161 °C.

Compound `CN(C)c1ccc2c(c1)C(=O)CC(c1cccc(O)c1)=N2` displayed a melting point of 342 to 344 °C.

The compound `CCOC(=O)C(=O)c1ccc(OCCCCC(=O)c2cc(C(C)(C)C)c(O)c(C(C)(C)C)c2)cc1` had a melting point of 95 to 96 °C.

`COc1cc(N)c(Cl)cc1C(=O)NCC1CCN(CCCS(=O)(=O)Cc2ccc(F)cc2)CC1` registered a melting point of 147 to 148 °C.

Compound `O=c1[nH]c(=Cc2ccc(OCc3ccccc3)cn2)c(=O)[nH]c1=Cc1ccc2c(c1)OCO2` displayed a melting point of 255 to 256 °C.

`C=C1N(C)C(=O)OC12CCN(C(=O)NCCCC)CC2` showed a melting point of 129 to 130 °C.

Turning to `CCc1cc(C(=O)c2ccccc2)c(O)cc1OCCCCC#N`, the melting point lay in the range of 42 to 44 °C.

The compound `CC[C@@H](C)[C@H](CC(C(=O)O)C(=O)O)C(=O)OC` returned a melting point of 98 °C.

In turn, `Cc1ccc(C2c3c(C)c(N4CCN(c5ccc([N+](=O)[O-])cc5)CC4)c(C)c(C)c3OC2(C)C)cc1` (configuration not stated) had a melting point of 203 to 205 °C.

With `N#Cc1ccc(C(=O)NC(=S)NCCc2ccccc2)cc1`, the melting point is 142 to 144 °C.

The compound `O=S(c1ccccc1)c1ccc2c(c1)C(O)C(Br)CCO2` (configuration not stated) had a melting point of 147 to 149 °C.

`CCCCCCC(=N)NC(=S)Nc1ccc(Br)cc1` registered a melting point of 112 to 113 °C.

For the compound `COC1=C(OC)C(=O)C(CCCCCCCCCCCCCCCC(=O)O)=C(C)C1=O`, the melting point lay in the range of 70 to 71 °C.

With `CC1(C)Oc2c(N)ccc(Cl)c2C1=O`, the melting point was 71 to 73 °C.

The compound `CC1(C)C=C(c2ccccn2)c2cc(C#N)ccc2O1` gave a melting point of 106 to 108 °C.

Regarding `Cc1c(-c2ccccc2)oc2c(SCCCCCl)cccc2c1=O`, the melting point was in the range of 81 to 84 °C.

Take `CCCCCS(=O)(=O)NC(=O)CCc1cc(OC(C)C)nn1Cc1ccc(F)cc1F`: the melting point lay in the range of 107 to 108 °C.

Take `O=C(NC1CCCCC1)OC1CCCCC1`: the melting point lay in the range of 77 to 78 °C.

The compound `Cc1cnc2c(NC(=O)c3c(Cl)cccc3Cl)cccc2c1OCC=Cc1ccccc1` gave a melting point of 169 to 171 °C.

In turn, `Cn1nc(-c2ccccc2)c(N2CCOCC2)c(C=NO)c1=O` returned a melting point of 182 to 183 °C.

`COc1ccc2c(c1C)CCCC2=O` displayed a melting point of 103 to 105 °C.

With `CCOC(=O)c1c(Cn2nccn2)nc2cc(OC)c(OC)cc2c1-c1ccc(OC)c(OC)c1`, the melting point lay within 163 to 164 °C.

`Cc1nc2nc(SCc3ccccc3)nn2cc1Cl` returned a melting point of 160 to 161 °C.

Compound `Cc1ccnc(-n2ccnc2S(=O)Cc2ccccc2N(C)C)c1` (configuration not stated) returned a melting point of 127 to 129 °C.

The compound `Cc1ccc(-c2ccccc2)cc1Cn1c(C2CC2)nn(C)c1=O` returned a melting point of 102 °C.

In turn, `CC(=O)c1ccc(C)c(N=C2NCCN2)c1` came in with a melting point of 160 to 162 °C.

In turn, `CCCCCCCCCCCCCOc1ccc(CO)cc1` showed a melting point of 72 to 75 °C.

`C=CCNc1c(CO)cnc2cn(C)nc12` displayed a melting point of 151 to 159 °C.

`CC(C)(C)OC(=O)NC(C)(CO)C(=O)OC(C)(C)C` (configuration not stated) returned a melting point of 44 to 45 °C.

Turning to `CC#CCn1c(Oc2cc(C)cc(C)c2)c(C(C)C)c(=O)[nH]c1=O`, the melting point lay within 158 to 160 °C.

Turning to `Nc1cc(C(=O)c2cccc(C(=O)c3ccc(F)c(N)c3)c2)ccc1F`, the melting point is 170 to 171 °C.

`Oc1ccc2cc(-c3cnc(Cc4ccc5ccccc5c4)o3)ccc2c1` yielded a melting point of 188 to 191 °C.

Compound `CC(C)(C)c1ccc(C(NC(=O)c2c(F)cccc2F)N2CCOCC2)cc1` (configuration not stated) showed a melting point of 199 to 200 °C.

Turning to `CCN(CC)C(=O)COC(=O)/C=C/C(=O)OC`, the melting point was 53 to 56 °C.

`CCOC(=O)CCSc1nnsc1-c1ccc(Cl)cc1`: the melting point was 71.5 to 73.5 °C.
